Source: patent US20230322735A1, “AZETIDINYL TRYPTAMINES AND METHODS OF TREATING PSYCHIATRIC DISORDERS” (priority 2020, published 2023)
Where a name gives a salt, the structure may show the parent alone. Read-outs that look alike come from different tables or passages of the source.

Assays:
5-HT2A receptor = molecular target: T1, 5-HT2A receptor (Homo sapiens, UniProt P28223); assay: FLIPR Ca2+ flux agonist assay at 5-HT2A (HEK293); assay type: cell-based
T1 construct: host or cells: HEK293
Method: (§1) A solution of 250 mM probenecid in 1 mL FLIPR assay buffer was prepared fresh. This was combined with a fluorescent dye (Fluo-4 Direct™) to make a final assay concentration of 2.5 mM. […] The fluorescent dye was then added to the assay plate along with assay buffer to a final volume of 40 μL. The cell plate was incubated for 50 min at 37° C. and 5% CO2 and placed into the FLIPR Tetra along with the compound plate. 10 μL of references and compounds were then transferred from the compound plate into the cell plate and the fluorescent signal was read.

5-HT2B receptor = molecular target: T2, 5-HT2B receptor (Homo sapiens, UniProt P41595); assay: FLIPR Ca2+ flux agonist assay at 5-HT2B (HEK293); assay type: cell-based; details: for 5-HT2B % Act @ Max Dose: Ca2+ flux, agonist mode, HEK293
T2 construct: host or cells: HEK293
T2 sequence (P41595 whole entry): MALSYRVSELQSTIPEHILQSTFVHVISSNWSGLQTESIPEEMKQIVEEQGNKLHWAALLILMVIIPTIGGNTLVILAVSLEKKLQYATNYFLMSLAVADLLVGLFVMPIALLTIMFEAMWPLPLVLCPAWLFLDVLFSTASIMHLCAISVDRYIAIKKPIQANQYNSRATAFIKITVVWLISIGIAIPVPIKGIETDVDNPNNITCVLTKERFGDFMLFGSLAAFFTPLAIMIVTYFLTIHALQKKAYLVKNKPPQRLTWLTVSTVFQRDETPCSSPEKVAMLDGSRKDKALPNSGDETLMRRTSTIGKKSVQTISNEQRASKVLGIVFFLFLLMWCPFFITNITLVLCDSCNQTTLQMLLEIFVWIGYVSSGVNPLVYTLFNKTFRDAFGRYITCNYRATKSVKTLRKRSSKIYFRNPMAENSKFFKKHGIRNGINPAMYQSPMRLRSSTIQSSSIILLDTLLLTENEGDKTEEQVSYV
Method: as §1

C57BL/6 mice = assay: Head twitch response (HTR) in mice; assay type: in vivo, mouse; details: SC; for maximal effect in the HTR assay: maximum over doses tested
[1] = Stability in mouse brain homogenate; details: for half-life at 1 μM: male, CD-1, mouse, mouse brain homogenate; for % Compound Remaining (after 120 min) / t1/2: mouse brain homogenate (male CD-1), 1 μM, 37° C.
[2] = Metabolic stability in human liver microsomes (HLM); details: for half-life at 1 μM / microsomal CLint at 1 μM: both, human, pooled human liver microsomes, pH 7.4; for metabolic stability in HLM compared with dimethyl counterpart: vs DMT, psilocin, 5-MeO-DMT respectively; for t1/2: HLM, 1 μM test compound, 0.50 mg protein/mL, NADPH, 37° C., 60 min
[3] = Stability in rat brain homogenate; details: for half-life at 1 μM: male, Sprague Dawley, rat, rat brain homogenate; for % Compound Remaining (after 120 min) / t1/2: rat brain homogenate (male Sprague Dawley), 1 μM, 37° C.
5-HT1A receptor = molecular target: T3, 5-HT1A receptor (Homo sapiens, UniProt P08908); assay: FLIPR Ca2+ flux agonist assay at 5-HT1A (CHO cells); assay type: cell-based; details: for fold more potent at 5-HT1A than dimethyl (and methylethyl) counterparts: Ca2+ flux EC50 compared with DMT/MET, psilocin/4-HO-MET, 5-MeO-DMT; for 5-HT1A % Act @ Max Dose: Ca2+ flux, agonist mode, CHO cells
T3 construct: host or cells: CHO cells
T3 sequence (P08908 1-422): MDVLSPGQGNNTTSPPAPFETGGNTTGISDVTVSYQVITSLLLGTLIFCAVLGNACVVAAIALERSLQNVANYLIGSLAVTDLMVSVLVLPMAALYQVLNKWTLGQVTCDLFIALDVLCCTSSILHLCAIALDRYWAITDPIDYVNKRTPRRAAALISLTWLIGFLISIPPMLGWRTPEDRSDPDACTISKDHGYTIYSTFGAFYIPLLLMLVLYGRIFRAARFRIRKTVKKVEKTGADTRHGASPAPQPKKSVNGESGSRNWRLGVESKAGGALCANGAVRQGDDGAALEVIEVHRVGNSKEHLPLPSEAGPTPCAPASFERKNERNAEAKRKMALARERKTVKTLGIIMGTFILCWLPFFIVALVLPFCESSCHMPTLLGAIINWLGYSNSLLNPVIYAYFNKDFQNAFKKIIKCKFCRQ
Method: as §1

[4] = Chemical stability of the product on storage and analysis; assay type: physicochemical; details: storage and handling
Method: Note: The product 2 is unstable and should be stored frozen, protected from light, and under inert gas. If stored properly, stability has been confirmed by qNMR for at least 1 month.
A mixture of 3-(2-(azetidin-1-yl)ethyl)-1H-indol-4-ol (2, 50 mg, 231.18 μmol, 1 eq) and pyridine (23.77 mg, 300.54 μmol, 24.26 μL, 1.3 eq) in DCM (1 mL) was cooled to 0° C. Then acetic anhydride (25.96 mg, 254.30 μmol, 23.82 μL, 1.1 eq) was added dropwise at 0° C. and the resulting mixture was stirred at 25° C. for 1 h. At this time, the solvent was removed and the residue was purified by prep-HPLC (column=Waters Xbridge BEH C18 (100*30 mm, 10 μm); mobile phase=water(NH4HCO3)-ACN, B %=5%-40%; 10 min run time) to provide 3-(2-(azetidin-1-yl)ethyl)-1H-indol-4-yl acetate (4) as a white solid (20 mg, 33% yield). ^1H NMR (400 MHz, DMSO-d6) δ 11.01 (br s, 1H), 7.22 (d, J=8.0 Hz, 1H), 7.11 (d, J=1.6 Hz, 1H), 7.02 (t, J=8.0 Hz, 1H), 6.64 (d, J=7.6 Hz, 1H), 3.09 (t, J=6.8 Hz, 4H), 2.57-2.54 (m, 4H), 2.32 (s, 3H), 1.96-1.90 (m, 2H); LCMS (RT=0.983 min, MS calc.: 258.14, [M+H]+=259.1).

[5] = Pro-drug conversion to Compound 2 after administration to an animal; assay type: in vivo; details: when administered to an animal, for example a human
human 5-HT2C receptor = molecular target: T4, human 5-HT2C receptor (Homo sapiens, UniProt P28335); assay: cell-based; details: Ca2+ flux, agonist mode
T4 sequence (P28335 33-458): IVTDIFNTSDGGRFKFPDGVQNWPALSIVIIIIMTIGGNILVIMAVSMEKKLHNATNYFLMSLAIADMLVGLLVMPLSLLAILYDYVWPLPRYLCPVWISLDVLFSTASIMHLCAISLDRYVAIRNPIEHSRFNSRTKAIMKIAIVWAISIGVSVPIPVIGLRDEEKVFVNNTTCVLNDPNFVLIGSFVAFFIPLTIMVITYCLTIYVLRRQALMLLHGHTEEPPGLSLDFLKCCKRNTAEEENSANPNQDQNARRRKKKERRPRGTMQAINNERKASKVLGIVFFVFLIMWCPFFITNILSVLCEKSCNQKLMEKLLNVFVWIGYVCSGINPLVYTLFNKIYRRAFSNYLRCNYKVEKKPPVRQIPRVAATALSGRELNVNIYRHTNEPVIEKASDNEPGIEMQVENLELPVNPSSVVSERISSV

[6] = Ca2+ flux, agonist mode, HEK293
[7] = Ca2+ flux, agonist mode, HEK293, read-out: 5-HT2A EC50

T1 sequence (P28223 whole entry): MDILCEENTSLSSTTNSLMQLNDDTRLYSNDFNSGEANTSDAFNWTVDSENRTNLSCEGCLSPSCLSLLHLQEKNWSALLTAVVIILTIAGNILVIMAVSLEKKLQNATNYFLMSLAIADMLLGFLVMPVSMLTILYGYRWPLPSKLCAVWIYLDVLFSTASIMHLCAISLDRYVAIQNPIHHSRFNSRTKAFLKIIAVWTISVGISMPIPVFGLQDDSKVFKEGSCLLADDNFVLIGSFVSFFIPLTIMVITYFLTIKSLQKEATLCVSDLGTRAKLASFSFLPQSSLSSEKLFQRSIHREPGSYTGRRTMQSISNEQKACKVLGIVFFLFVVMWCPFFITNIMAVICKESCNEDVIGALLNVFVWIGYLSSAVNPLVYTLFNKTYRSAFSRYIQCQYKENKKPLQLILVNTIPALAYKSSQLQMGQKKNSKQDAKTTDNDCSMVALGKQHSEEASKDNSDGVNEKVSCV

Structure (SMILES) | 5-HT2A % Act @ Max Dose (5-HT2A receptor; [6]) [%] | EC50 (5-HT2B receptor) [nM] | 5-HT2B % Act @ Max Dose (5-HT2B receptor) [%] | % Compound Remaining (after 120 min) [1] [%] | microsomal CLint at 1 μM [2] [µL/min/mg] | % Compound Remaining (after 120 min) [3] [%] | EC50 (5-HT1A receptor) [nM] | 5-HT1A % Act @ Max Dose (5-HT1A receptor) [%] | t1/2 [1] [h] | t1/2 [2] [h] | t1/2 [3] [h] | other results
c1ccc2c(CCN3CCC3)c[nH]c2c1 [Compound 1, 3-(2-(azetidin-1-yl)ethyl)-1H-indole fumarate] | 73.2 | 917 | 22.6 | 111.3 | 12.4 | 91.9 | 745 | 135 | – | – | – | EC50 (5-HT2A receptor; [7]): 90.4 nM; Average HTR Over 20-min Test (C57BL/6 mice; dose 0.1 mg/kg): 5.00; Average HTR Over 20-min Test (C57BL/6 mice; dose 1 mg/kg): 2.17; Average HTR Over 20-min Test (C57BL/6 mice; dose 10 mg/kg): 1.00; stability in mouse brain homogenate (in words) [1]: good stability; half-life at 1 μM [1]: > 4.82 h; half-life at 1 μM [2]: 1.86 h; metabolic stability in HLM compared with dimethyl counterpart [2]: greater metabolic stability; stability in rat brain homogenate (in words) [3]: good stability; half-life at 1 μM [3]: > 4.82 h; fold more potent at 5-HT1A than dimethyl (and methylethyl) counterparts (5-HT1A receptor): > 50 fold
COc1ccc2[nH]cc(CCN3CCC3)c2c1 [Compound 3, 3-(2-(azetidin-1-yl)ethyl)-5-methoxy-1H-indole fumarate] | 99.3 | 274 | 35.0 | 103.1 | < 9.6 | 98 | 21.1 | 112 | – | – | – | EC50 (5-HT2A receptor; [7]): 7.15 nM; stability in mouse brain homogenate (in words) [1]: good stability; half-life at 1 μM [1]: > 4.82 h; half-life at 1 μM [2]: > 2.42 h; metabolic stability in HLM compared with dimethyl counterpart [2]: greater metabolic stability; stability in rat brain homogenate (in words) [3]: good stability; half-life at 1 μM [3]: > 4.82 h; fold more potent at 5-HT1A than dimethyl (and methylethyl) counterparts (5-HT1A receptor): > 10 fold
CC(=O)Oc1cccc2[nH]cc(CCN3CCC3)c12 [Compound 4, 3-(2-(azetidin-1-yl)ethyl)-1H-indol-4-yl acetate] | – | – | – | – | – | – | – | – | – | – | – | stability compared with Compound 2 [4]: more stable to oxidation than Compound 2; hydrolysis of the ester to Compound 2 as active metabolite [5]: rapidly hydrolyzed
CCN(C)CCc1c[nH]c2cccc(O)c12 [Compound 4-HO-MET, 3-(2-(ethyl(methyl)amino)ethyl)-1H-indol-4-ol, reference compound] | 103 | > 10000 | 1.09 | – | – | – | 14700 | 73.0 | – | – | – | EC50 (5-HT2A receptor): 15.1 nM; Average HTR Over 20-min Test (C57BL/6 mice; dose 0.1 mg/kg): 9.50; Average HTR Over 20-min Test (C57BL/6 mice; dose 1 mg/kg): 20.83; Average HTR Over 20-min Test (C57BL/6 mice; dose 10 mg/kg): 11.33; maximal effect in the HTR assay (C57BL/6 mice): 20.8 head twitches/20 min
O=P(O)(O)Oc1cccc2[nH]cc(CCN3CCC3)c12 [Compound 5, 3-(2-(azetidin-1-yl)ethyl)-1H-indol-4-yl dihydrogen phosphate] | – | – | – | – | – | – | – | – | – | – | – | stability compared with Compound 2 [4]: more stable than Compound 2; hydrolysis of the ester to Compound 2 as active metabolite [5]: rapidly hydrolyzed
COc1ccc2[nH]cc(CCN(C)C)c2c1 [Compound 5-MeO-DMT, reference compound] | 106 | – | 17.6 | 91.2 | 102 | 0.3 | – | 100 | >4.818 | 0.227 | 0.24 | –
CN(C)CCc1c[nH]c2ccccc12 [DMT, N,N-dimethyltryptamine, reference compound] | 93.4 | – | 10.4 | 0.0 | 199 | 0.0 | – | 68.1 | 0.107 | 0.117 | 0.085 | –
COc1cc(CC(C)N)c(OC)cc1I (stereo not shown) [DOI, 4-iodo-2,5-dimethoxyamphetamine, reference compound] | – | – | – | – | – | – | – | – | – | – | – | maximal effect in the HTR assay (C57BL/6 mice): 35.6 head twitches/20 min
CCN(C)CCc1c[nH]c2ccccc12 [MET, N-ethyl-2-(1H-indol-3-yl)-N-methylethan-1-amine, reference compound] | 36.2 | > 100000 | 22.5 | – | – | – | 89400 | 73.6 | – | – | – | EC50 (5-HT2A receptor): 17.1 nM; 5-HT2C % Act @ Max Dose (human 5-HT2C receptor): 89.7%; EC50 (human 5-HT2C receptor): 28.3 nM
CN(C)CCc1c[nH]c2cccc(O)c12 [Psilocin, psilocin, reference compound] | – | – | 1.44 | 97.6 | 127 | 46.1 | 5260 | 66.4 | >4.818 | 1.828 | 1.913 | –
